Experimental findings from ChEMBL document CHEMBL1141055, “Discovery of novel conformationally restricted diazocan peptidomimetics as inhibitors of interleukin-1beta synthesis” (Bioorg Med Chem Lett, 2005) are described below.

One experiment deals with T1, Caspase-1 (Homo sapiens, UniProt P29466).
T1 sequence (P29466 whole entry): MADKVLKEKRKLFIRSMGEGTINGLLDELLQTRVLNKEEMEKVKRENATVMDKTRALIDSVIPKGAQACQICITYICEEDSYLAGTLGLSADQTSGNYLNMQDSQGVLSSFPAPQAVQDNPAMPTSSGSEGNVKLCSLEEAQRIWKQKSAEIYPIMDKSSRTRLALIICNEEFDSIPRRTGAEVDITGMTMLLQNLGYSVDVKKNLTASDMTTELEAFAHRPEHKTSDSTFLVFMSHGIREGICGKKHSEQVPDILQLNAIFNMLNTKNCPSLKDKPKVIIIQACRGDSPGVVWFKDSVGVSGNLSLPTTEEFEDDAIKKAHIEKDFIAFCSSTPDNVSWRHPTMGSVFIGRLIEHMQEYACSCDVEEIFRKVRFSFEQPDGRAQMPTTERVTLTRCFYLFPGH
The experiment can be described thus: Inhibition of caspase-1 using fluorogenic substrate and BMG Fluostar plate reader for 30 min at 37 degree C.

A further experiment concerns THP-1. Description: Inhibition of 1 ug/mL LPS-induced IL1-beta production in human monocytic cells after 4 hrs. It counts as functional, cell-based. To be noted: THP-1, 4 h.
For another experiment, the target named is T2, Caspase-3 (Homo sapiens, UniProt P42574).
T2 sequence (P42574 whole entry): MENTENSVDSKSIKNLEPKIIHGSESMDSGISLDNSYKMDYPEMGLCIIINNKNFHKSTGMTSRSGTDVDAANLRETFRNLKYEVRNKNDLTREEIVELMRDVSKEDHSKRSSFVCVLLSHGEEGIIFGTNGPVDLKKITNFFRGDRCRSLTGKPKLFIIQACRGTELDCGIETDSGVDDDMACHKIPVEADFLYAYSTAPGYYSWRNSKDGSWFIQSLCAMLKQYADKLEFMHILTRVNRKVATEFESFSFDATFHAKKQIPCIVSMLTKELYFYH
The experiment can be described thus: Inhibition of caspase 3 using fluorogenic substrate and BMG Fluostar plate reader for 30 min at 37 degree C.

Another experiment concerns the target Caspase-8 (Homo sapiens, UniProt Q14790). Description: Inhibition of caspase 8 using fluorogenic substrate and BMG Fluostar plate reader for 30 min at 37 degree C.

The term pIC50 denotes the negative decadic logarithm of the IC50, by convention in mol/L.

pIC50: −log10 of the molar value. Some results are limits rather than exact numbers.

Caspase-8, sequence (Q14790 217-374 limits assumed): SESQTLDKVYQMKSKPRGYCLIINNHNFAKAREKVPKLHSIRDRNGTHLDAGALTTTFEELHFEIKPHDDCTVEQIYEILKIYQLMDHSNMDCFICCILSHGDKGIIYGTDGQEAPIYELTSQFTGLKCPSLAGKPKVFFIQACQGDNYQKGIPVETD
Caspase-8, sequence (Q14790 385-479 limits assumed): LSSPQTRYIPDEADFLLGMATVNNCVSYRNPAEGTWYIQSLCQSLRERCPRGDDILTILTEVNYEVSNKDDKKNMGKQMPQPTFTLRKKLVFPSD

For `O=C(CN1CCCN(C(=O)c2ccccc2)C[C@H](NC(=O)c2ccc3ccccc3c2)C1=O)N[C@H]1CC(=O)OC1O` (stereo partly specified), the pIC50 at Caspase-1 was 7.72; in the experiment with THP-1, 6.69; on Caspase-3, below 5.00; against Caspase-8, below 5.00.
For `COc1ccccc1C(=O)N1CCCN(CC(=O)N[C@H]2CC(=O)OC2O)C(=O)[C@@H](NC(=O)c2ccc3ccccc3c2)C1` (stereo partly specified), the pIC50 at Caspase-1 was 7.42; in the experiment on THP-1 it was 6.61; at Caspase-3, below 5.00; at Caspase-8, below 5.00.
For `O=CN1CCCN(CC(=O)N[C@H]2CC(=O)OC2O)C(=O)[C@@H](NC(=O)c2ccc3ccccc3c2)C1` (stereo partly specified), the pIC50 with THP-1 was 6.66.
Molecule `O=C(CN1CCCN(C(=O)c2ccccc2C(F)(F)F)C[C@H](NC(=O)c2ccc3ccccc3c2)C1=O)N[C@H]1CC(=O)OC1O` (stereo partly specified) gave a pIC50 in the experiment on THP-1 of 5.82.
For `COc1cccc(C(=O)N2CCCN(CC(=O)N[C@H]3CC(=O)OC3O)C(=O)[C@@H](NC(=O)c3ccc4ccccc4c3)C2)c1` (stereo partly specified), the pIC50 against Caspase-1 was 7.82; with THP-1, 6.64; against Caspase-3, below 5.00; on Caspase-8, below 5.00.
On to `Cc1ccc(Cl)cc1C(=O)N[C@H]1CN(C(=O)c2ccccc2)CCCN(CC(=O)N[C@H]2CC(=O)OC2O)C1=O` (stereo partly specified), for which, in the experiment on THP-1, the pIC50 was 6.53.
As for `O=C(CN1CCCN(C(=O)N2CCOCC2)C[C@H](NC(=O)c2ccc3ccccc3c2)C1=O)N[C@H]1CC(=O)OC1O` (stereo partly specified), the pIC50 against Caspase-1 is 7.36; in the experiment on THP-1, 6.65; against Caspase-3, below 5.00; at Caspase-8, below 5.00.
The molecule `CC(=O)N1CCCN(CC(=O)N[C@H]2CC(=O)OC2O)C(=O)[C@@H](NC(=O)c2ccc3ccccc3c2)C1` (stereo partly specified) gave a negative logarithm of the IC50 (pIC50) in the experiment with THP-1 of 6.67.
Turning to `Cc1ccc(Cl)cc1C(=O)N1CCCN(CC(=O)N[C@H]2CC(=O)OC2O)C(=O)[C@@H](NC(=O)c2ccc3ccccc3c2)C1` (stereo partly specified), the pIC50 in the experiment on THP-1 is below 5.60.
As for `O=C(CN1CCCN(C(=O)Cc2ccccc2)C[C@H](NC(=O)c2ccc3ccccc3c2)C1=O)N[C@H]1CC(=O)OC1O` (stereo partly specified), the negative-log IC50 (pIC50) with THP-1 was 6.09.
As to `O=C(CN1CCCN(C(=O)c2cccc(F)c2)C[C@H](NC(=O)c2ccc3ccccc3c2)C1=O)N[C@H]1CC(=O)OC1O` (stereo partly specified), the pIC50 at Caspase-1 was 7.66; with THP-1, 6.53; against Caspase-3, below 5.00; at Caspase-8, below 5.00.
In the experiment on THP-1, `O=C(CN1CCCN(C(=O)C2CCCCC2)C[C@H](NC(=O)c2ccc3ccccc3c2)C1=O)N[C@H]1CC(=O)OC1O` (stereo partly specified) had a negative-log IC50 (pIC50) of 6.24.
Turning to `O=C(CN1CCCN(C(=O)c2cccc(C(F)(F)F)c2)C[C@H](NC(=O)c2ccc3ccccc3c2)C1=O)N[C@H]1CC(=O)OC1O` (stereo partly specified), in the experiment with THP-1, the negative logarithm of the IC50 (pIC50) is 5.76.
Consider `CCO[C@@H]1OC(=O)C[C@@H]1NC(=O)[C@@H]1CCCN2C(=O)CC[C@H](NC(=O)c3nccc4ccccc34)C(=O)N12` [PRALNACASAN], for which the negative-log IC50 (pIC50) is 8.70 against Caspase-1 and 6.92 in the experiment with THP-1.
In turn, `O=C(CN1CCCN(C(=O)c2ccccc2)C[C@H](NC(=O)c2cc3ccccc3s2)C1=O)N[C@H]1CC(=O)OC1O` (stereo partly specified) showed a pIC50 in the experiment with THP-1 of 6.25.
`O=C(CN1CCCN(C(=O)N2CCNCC2)C[C@H](NC(=O)c2ccc3ccccc3c2)C1=O)N[C@H]1CC(=O)OC1O` (stereo partly specified): the negative-log IC50 (pIC50) at Caspase-1 was 7.62; in the experiment on THP-1, 6.55; against Caspase-3, below 5.00; on Caspase-8, below 5.00.
In the case of `O=C(CN1CCCN(C(=O)c2ccccc2)C[C@H](NC(=O)c2nccc3ccccc23)C1=O)N[C@H]1CC(=O)OC1O` (stereo partly specified), the pIC50 against Caspase-1 is 7.52; with THP-1, 6.55; against Caspase-3, below 5.00; against Caspase-8, below 5.00.
In the experiment on THP-1, `O=C(CN1CCCN(C(=O)c2ccccc2)C[C@H](NC(=O)c2ccccc2)C1=O)N[C@H]1CC(=O)OC1O` (stereo partly specified) gave a pIC50 of 5.99.
Take `O=C(CN1CCCN(C(=O)c2ccccc2)C[C@H](NC(=O)c2cccc(C(F)(F)F)c2)C1=O)N[C@H]1CC(=O)OC1O` (stereo partly specified): in the experiment with THP-1, the pIC50 is 5.99.
